The source of these data is patent US20100041757A1, “N-ARYL-HYDROXYALKYLIDENE-CARBOXAMIDE COMPOUNDS AND THEIR USE” (priority 2006, published 2010).

The structures appear in SMILES notation.

Assay [1] deals with skin of the upper lip (philtrum). Put plainly: Cooling sensation bioassay, ointment applied to skin above the upper lip (philtrum) of test subjects. It counts as in vivo, human. Particulars: for duration of action: applied to the skin of test subjects; for qualitative aspects of sensation (coolness and not cold, duration at least three hours): topical, philtrum method. From the text: A reliable place for topical application is on the upper lip, above the vermillion border of the lips, on the philtrum, lateral to the philtrum until the nasolabial folds, and on the lower nostrils. This part of the face is known to be densely innervated with cold receptors, second only to the surface of eyeball. Tingling, cool and cold sensations may be experienced and rated for intensity. This test is quite accurate for predicting the cooling activity of candidate N-arylshydroxyalkylidene-cCarboxamide drugs, but most importantly, it also measures the duration of drug action on the sensory receptors. The duration of action is not measured in a receptor assay and is difficult to quantify on the tongue because of the dynamic fluid conditions in the oral cavity and the presence of taste factors that affect thermosensation.
For bioassay of […] on the skin, CPS-195 was stirred and dissolved in warm liquid Aquaphor® ointment to yield ointment concentrations of 0.25, 0.5, 1, and 2% wt/vol. After cooling, 50 to 80 mg of the solid ointment was placed on the tip of a plastic stick and applied to the skin above the upper lip, on the philtrum, and lateral to the philtrum up to the nasolabial folds, of test subjects and the onset and duration of cooling sensations recorded. Each of the compounds produce cooling on the skin of the upper lip with duration of action of more than 1 hour.
The intensity of the subjective skin sensation is rated as 0, 1, 2 or 3 with 0 as no change, 1 as slight coolness, cold, or tingling, 2 as clear cut signal of coolness, cold, or tingling, and 3 as robust cooling or cold. The interval for recording sensations is at 5 minute intervals, until two successive zeroes are obtained. The results are averaged values of 4 to 6 separate trials in the same individual. The data were plotted using SigmaPlot (Systat Software, Point Richmond Calif.) and a smoothing function with a negative exponential was used for analysis and statistical fit of the results.
The onset of drug action was taken as the time to reach 2 units of coolness intensity, and offset of drug action was the time when coolness intensity drops below 1.5, after previously surpassing 2 units. The duration of cooling action was defined as the offset time minus the onset time, which in this case averaged 2 minutes. The quality of the sensation was also noted, such as refreshing coolness, cold, or if the sensation was accompanied by irritation (stinging or burning). The quality of the sensation was not rated for intensity.

The next assay relates to oral cavity. Put plainly: Cooling sensation after placement on the dorsal surface of the tongue. In kind it is in vivo, human. As to the method:
The onset of cooling was 3 to 5 minutes, but once the effect was established, the entire oral cavity and pharyngeal surfaces (oro-, laryngo- and naso-pharynx) felt cool.
CPS-195 was formulated as a 3% wt/wt tablet in Ludipress®, a rapidly disintegrating direct compression excipient made by BASF Corp. The tablet size was 60 mg so each unit contained 1.8 mg of CPS-195. […] For example, applied onto the mucous membranes of the oral cavity it can soothe the discomforts of pharyngitis/laryngitis, oral mucositis, oral ulcers, and idiopathic facial pain. In the pharynx and upper airways, CPS-195 may be used to reduce or to treat cough, asthma, and chronic obstructive pulmonary disease. On the skin, CPS-195 can be used to treat the discomfort of severe acne, eczema, diabetic ulcers, and the like.

A further assay has as its target T1, TRP-M8 receptor (Homo sapiens, UniProt Q7Z2W7).
T1 construct: expressed in transfected cells
The experiment in a line: TRP-M8 receptor assay. In kind it is cell-based. The source says: Pain was defined by Sir Charles Sherrington as “the psychic adjunct of an imperative protective reflex”. Psychic events such as cooling, irritation, itch, and pain cannot be expressed by animals (animals cannot say “ouch” or that “it itches”) so the sensory effects of chemicals must be indirectly inferred. Receptor assays, based on cells transfected with the gene for TRP-M8 or TRP-A1, may be used as a model of sensory processes. […] But, as noted below, these assays give no information on how long and for what quality of sensations is occurring on human subjects. The best information on the pharmacological properties of these chemicals must therefore be derived from human experiment.
The sensations are more cold than cool, and have the sting and harshness of high concentrations of menthol. […] CPS-112 was therefore a disappointment in spite of its high potency on the receptor assay.

[2] abbreviates: 2 mg on the dorsal surface of the tongue.

T1 sequence (Q7Z2W7 whole entry): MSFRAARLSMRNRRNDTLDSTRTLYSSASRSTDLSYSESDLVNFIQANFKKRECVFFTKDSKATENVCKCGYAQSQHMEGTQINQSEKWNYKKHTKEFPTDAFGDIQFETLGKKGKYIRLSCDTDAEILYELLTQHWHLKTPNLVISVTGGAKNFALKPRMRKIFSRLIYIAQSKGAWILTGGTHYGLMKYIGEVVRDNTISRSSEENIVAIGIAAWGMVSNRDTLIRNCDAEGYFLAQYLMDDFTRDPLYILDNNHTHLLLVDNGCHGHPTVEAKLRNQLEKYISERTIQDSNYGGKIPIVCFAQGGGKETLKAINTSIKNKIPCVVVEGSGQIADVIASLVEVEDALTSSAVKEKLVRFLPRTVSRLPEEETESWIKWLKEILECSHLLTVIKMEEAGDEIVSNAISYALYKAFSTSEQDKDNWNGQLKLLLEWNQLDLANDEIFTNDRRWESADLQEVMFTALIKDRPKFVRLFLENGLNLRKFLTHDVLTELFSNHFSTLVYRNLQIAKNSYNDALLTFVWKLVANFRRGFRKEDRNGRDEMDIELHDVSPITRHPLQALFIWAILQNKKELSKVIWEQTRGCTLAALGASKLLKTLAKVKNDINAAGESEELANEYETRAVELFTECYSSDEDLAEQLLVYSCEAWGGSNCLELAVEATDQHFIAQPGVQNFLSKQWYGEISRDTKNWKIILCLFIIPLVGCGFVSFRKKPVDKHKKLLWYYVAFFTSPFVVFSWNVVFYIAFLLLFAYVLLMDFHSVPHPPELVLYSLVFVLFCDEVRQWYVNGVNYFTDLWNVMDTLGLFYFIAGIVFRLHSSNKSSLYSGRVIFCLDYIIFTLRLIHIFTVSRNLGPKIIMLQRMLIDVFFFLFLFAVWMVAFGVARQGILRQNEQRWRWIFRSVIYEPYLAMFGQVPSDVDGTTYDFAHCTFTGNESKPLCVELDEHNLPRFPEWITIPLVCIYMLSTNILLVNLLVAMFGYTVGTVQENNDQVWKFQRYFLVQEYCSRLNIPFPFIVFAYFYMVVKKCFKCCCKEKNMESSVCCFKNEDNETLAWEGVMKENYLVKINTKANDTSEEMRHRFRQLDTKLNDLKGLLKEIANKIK

Consider `CC1CCC(C(C)C)C(O)C1` (single isomer, unassigned; (-)) [(−)-menthol, reference compound], for which, in assay [1], the duration of action entry is “less than one”.

Consider `CC(C)[C@@H]1CC[C@@H](C)C[C@H]1C(=O)N(C)CC(O)c1cccc(O)c1` (stereo in doubt) [CPS-195, 2-isopropyl-5-methyl-cyclohexanecarboxylic acid (2′-hydroxy-2′-[3″-hydroxy-phenyl]-ethyl)-N-methyl-amide], for which the “duration of cooling sensation within the oral cavity” value in the assay on oral cavity (setting [2]) is “over 4 hours”. Besides, the “quality of cool/cold sensations” value in the assay with oral cavity (setting [2]) was “pleasant and not aversive”. Also, in the assay with oral cavity (single dose of 2 mg applied to the surface of the tongue or on to the philtrum), the duration of action is approximately 4 h. The “duration of action (coolness and cold on skin of the upper lip)” value in assay [1] (0.25% wt/vol in Aquaphor ointment) was determined as 1.2 h; in assay [1] (0.5% wt/vol in Aquaphor ointment) it was 1.8 h; in assay [1] (1% wt/vol in Aquaphor ointment) it was 2.4 h; in assay [1] (2% wt/vol in Aquaphor ointment), 5.2 h. Besides, the “potency compared to CPS-179, CPS-190 and CPS-192” value in assay [1] (skin of the upper lip) was “most potent”.

`CC(C)[C@@H]1CC[C@@H](C)C[C@H]1C(=O)Nc1ccc(S(=O)(=O)Nc2ncccn2)cc1` [CPS-125]: the “qualitative aspects of sensation (coolness and not cold, duration at least three hours)” value in assay [1] is given as “met”.

`CCOC(=O)CNC(=O)[C@@H]1C[C@H](C)CC[C@H]1C(C)C` [WS-5, reference compound]: in assay [1], the duration of action entry is “less than one”.

`COc1ccc(NC(=O)[C@@H]2C[C@H](C)CC[C@H]2C(C)C)cc1` [WS-12, reference compound]: the “active concentrations on the TRP-M8 receptor assay” value on TRP-M8 receptor is “sub-micromolar”. Further, in assay [1] (2% preparation), the “time at which action is dissipated” value is on record as “one” and the “time at which duration of action peaks” value came to 30 min. The “sensation elicited on the philtrum and its environs” value in assay [1] (applied at 1 to 2%) is given as “strong cold sensations”. Also, in assay [1], the “qualitative aspects of sensation (coolness and not cold, duration at least three hours)” value is recorded as “sensations of cold, but of brief duration”.
